Values quoted from earlier work as cited in article PMC10376326, “Novel Acylselenourea Derivatives: Dual Molecules with Anticancer and Radical Scavenging Activity” (Antioxidants, 2023).

Parameters: method as in PMID 36671001
Conditions: selenoester analogs, 0.03 mg/mL, 90 min; cited from earlier work

Compound | DPPH Inhibitory% [%]
C#CC[Se]C(=O)c1cccs1 [C00003 2-thiophenyl] | 0.0 ± 2.1
C#CC[Se]C(=O)c1cccnc1 [C00003 3-pyridyl] | 7.4 ± 0.7
C#CC[Se]C(=O)c1ccc2c(c1)OCO2 [C00003 5-benzo[d][1, 3]dioxyl] | 4.2 ± 8.0
C#CC[Se]C(=O)c1ccccc1 [C00003 phenyl] | 3.5 ± 0.9
